Source: patent US20190060337A1, “COMPOSITIONS COMPRISING BETA-GLUCOGALLIN AND THERAPEUTIC APPLICATIONS THEREOF IN CONTROLLED KINETICS OF CARBOHYDRATE BREAKDOWN AND MONOSACCHARIDE ABSORPTION” (priority 2017, published 2019)

Assay: Toxicity (LD50)
Details: in vivo

In the case of `O=C(O[C@@H]1O[C@H](CO)[C@@H](O)[C@H](O)[C@H]1O)c1cc(O)c(O)c(O)c1` [β-glucogallin, 1-O-galloyl-β-D-glucose], the LD50 is reported as “approx. 2000 mg/kg bodyweight”.
